Experiments:
Assay in all cases: relative viability (nuclei count vs DMSO), 5 days (fraction); higher = more cells survive
[1] = compound: Cc1ccc(Nc2nccc(N(C)c3ccc4c(C)n(C)nc4c3)n2)cc1S(N)(=O)=O [Pazopanib] + Nc1ncn([C@H]2C[C@H](O)[C@@H](CO)O2)c(=O)n1 [Decitabine] (partner 2 µM)
In short: (§1)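 After 5 days of treatment, lung cancer cells in 1536-well plates were fixed and stained in a single step (final 0.05% Triton X-100, 1% formaldehyde, 1 ug/ml Hoechst) and their nuclei counted on 4× images. Treatment had been applied by pin tool the day after seeding as one drug alone or as a fixed anchor-drug dose with five library-drug doses (not always all listed) in √10 steps. Relative viability is the nuclei count of treated wells divided by that of vehicle wells, and values are medians of duplicate plates.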

[2] = compound: Cc1ccc(C(=O)Nc2ccc(CN3CCN(C)CC3)c(C(F)(F)F)c2)cc1C#Cc1cnc2cccnn12 [Ponatinib] + C[C@]1(O)C[C@@H](c2nc(-c3ccc4ccc(-c5ccccc5)nc4c3)c3c(N)nccn32)C1 [Linsitinib] (partner 1 µM)
In short: as §1

[3] = compound: Cc1ccc(C(=O)Nc2ccc(CN3CCN(C)CC3)c(C(F)(F)F)c2)cc1C#Cc1cnc2cccnn12 [Ponatinib] + C[C@@H](Oc1cc(-c2cnn(C3CCNCC3)c2)cnc1N)c1c(Cl)ccc(F)c1Cl [Crizotinib] (partner 1 µM)
In short: as §1

[4] = compound: Cc1ccc(Nc2nccc(N(C)c3ccc4c(C)n(C)nc4c3)n2)cc1S(N)(=O)=O [Pazopanib] + CC(=O)c1c(C)c2cnc(Nc3ccc(N4CCNCC4)cn3)nc2n(C2CCCC2)c1=O [Palbociclib] (partner 0.5 µM)
In short: as §1

Row | Cell Line | relative viability ([1]; first compound 0.01 µM) | relative viability ([1]; first compound 0.03162 µM) | relative viability ([1]; first compound 0.1 µM) | relative viability ([1]; first compound 0.3162 µM) | relative viability ([1]; first compound 1 µM) | relative viability ([2]; first compound 0.002 µM) | relative viability ([2]; first compound 0.006325 µM) | relative viability ([2]; first compound 0.06325 µM) | relative viability ([2]; first compound 0.2 µM) | relative viability ([3]; first compound 0.002 µM) | relative viability ([3]; first compound 0.006325 µM) | relative viability ([3]; first compound 0.06325 µM) | relative viability ([3]; first compound 0.2 µM) | relative viability ([4]; first compound 0.01 µM) | relative viability ([4]; first compound 0.03162 µM) | relative viability ([4]; first compound 0.1 µM) | relative viability ([4]; first compound 0.3162 µM) | relative viability ([4]; first compound 1 µM)
1 | NCI-H23 | 0.308 | 0.309 | 0.341 | 0.376 | 0.335 | 0.501 | 0.602 | 0.705 | 0.608 | 0.471 | 0.488 | 0.504 | 0.558 | 0.42 | 0.531 | 0.614 | 0.594 | 0.586
2 | NCI-H522 | 0.658 | 0.666 | 0.817 | 0.73 | 0.673 | – | – | – | – | – | – | – | – | 0.973 | 0.97 | 1.05 | 0.887 | 0.883
3 | NCI-H596 | 0.996 | 1.08 | 1.14 | 1.12 | 0.966 | 1.03 | 1.01 | 1.08 | 0.792 | 0.905 | 0.891 | 0.917 | 0.843 | – | – | – | – | –
4 | NCI-H1299 | – | – | – | – | – | 0.915 | 0.948 | 0.971 | 0.951 | 0.904 | 0.936 | 0.974 | 0.923 | – | – | – | – | –
5 | NCI-H1395 | 0.651 | 0.69 | 0.638 | 0.766 | 0.743 | – | 1.05 | 0.915 | 0.832 | – | – | – | – | 0.572 | 0.647 | 0.659 | 0.6 | 0.625
6 | NCI-H1563 | – | – | – | – | – | 1.22 | 1.26 | 1.21 | 1.1 | 0.843 | 0.792 | 0.921 | 0.843 | – | – | – | – | –
7 | NCI-H1648 | – | – | 0.528 | 0.568 | 0.46 | – | – | – | – | – | – | – | – | – | – | 0.229 | 0.281 | 0.279
8 | NCI-H1650 | 0.431 | 0.419 | 0.464 | 0.405 | 0.603 | – | – | – | – | 1.03 | 0.939 | 1.17 | 0.821 | 0.333 | 0.433 | 0.375 | 0.349 | 0.393
9 | NCI-H1703 | – | – | – | – | – | 0.641 | 0.827 | 0.364 | 0.25 | 0.588 | 0.693 | 0.254 | 0.172 | – | – | – | – | –
10 | NCI-H1793 | – | 0.516 | 0.488 | 0.506 | 0.627 | 0.815 | 0.924 | 0.964 | 0.762 | – | – | – | – | – | 0.352 | 0.3 | 0.341 | 0.399
11 | NCI-H2170 | 0.47 | 0.467 | 0.453 | 0.449 | 0.428 | – | – | – | – | 1.13 | 1.15 | 1.22 | 1.17 | 0.353 | 0.387 | 0.445 | 0.399 | 0.393
12 | NCI-H2228 | – | – | – | – | – | 0.652 | 0.711 | 0.874 | 0.73 | 0.434 | 0.41 | 0.385 | 0.234 | 0.892 | 0.75 | 0.848 | 0.756 | 0.779
13 | NCI-H2342 | 0.678 | 0.684 | 0.918 | 0.612 | 0.697 | – | – | – | – | – | – | – | – | 0.538 | 0.501 | 0.496 | 0.489 | 0.515
14 | SW 900 | 0.516 | 0.453 | – | 0.462 | 0.505 | – | – | – | – | – | – | – | – | 0.463 | 0.636 | – | 0.65 | 0.595

— the supplement of paper PMC10307832
